Read-outs that look alike come from different tables or passages of the source.
Assays:
[1] = system: MutaFish^3 carrying EGFP^mut3; experiment: Genotoxicity test in transgenic zebrafish embryos, MutaFish^3; type: in vivo, zebrafish (Danio rerio)
Procedure: Almost all embryos were hatched during this incubation period.
One highly transgene-positive line was established.

[2] = system: CH4003 (TA98 carrying EGFP^mut3 on chromosome); experiment: His+ reversion, strain CH4003; details: for Number of revertants, EGFP^mut2 TA98, phenotype His^+: total 10^6 bacteria plated on minimal media plates
Procedure: (§1) The EGFP^mut DNA was inserted into the chromosome of Salmonella typhimurium LT2 strain via its putA site approximately 5 minutes away from the termination (ter) region of the chromosome (Elliott, 1992). lacP-EGFP^mut::CAT DNA was amplified with primers that contain sequences for the putA site of S. enterica serovar Typhimurium: 5′-primer […] […] […], which consisted of 50-nt or 55-nt of putA (putA sequences are underlined) and 25-nt or 22-nt sequences flaking lacP-nonEGFP::cat using pEGFP^mut::CAT plasmid as template. The 1.4-kbp PCR products were purified and transformed into bacteria carrying a Red helper plasmid (pKD46) by electroporation (Datsenko and Wanner, 2000). The Linear DNA contained a chloramphenicol gene as a marker for the P22 transduction into the S. typhimurium strain of Ames test, TA100 and TA98 to construct CH4001 and 4003, respectively (Davis, et al., 1980).
(§2) The plate-incorporation assay was carried out as described (OECD, 1997). Briefly, bacterial cells from stock cultures were grown for 12 hr in liquid medium at 37° C. A volume of 0.1 mL bacterial suspension was added to 2 mL of top agar (Difco) medium containing 0.6% agar, 0.6% NaCl and 20.96 μg of l-histidine and d-biotin (Sigma). Test solution (or solvent control, or positive control agent) and the S9-mix (0.5 mL/plate; 10% (v/v) S9) or potassium phosphate buffer (0.5 mL/plate; 0.2 M, pH 7.4; Sigma) were also added to the top agar which was then mixed and poured onto the top of Vogel-Bonner minimal medium agar plates (3 replicates/dose for the treated and 6 replicates for the solvent control). Colonies were counted 48 hr after incubation at 37° C. The highest volume of the test solution added per plate was initially limited to 100 μL, and then increased up to 200 μL in confirmation studies.
Subsequently, the gene for EGFP^mut was placed in the chromosome of relevant Salmonella typhimurium to establish mutation test strains analogous to that of Ames test. […]

[3] = system: CH4003 (TA98 carrying EGFP^mut3 on chromosome); details: for Number of revertants, EGFP^mut2 TA98, phenotype EGFP^+: total 10^6 bacteria plated on NA plates
Procedure: as §1
(§3) Subsequently, the gene for EGFP^mut was placed in the chromosome of relevant Salmonella typhimurium to establish mutation test strains analogous to that of Ames test. Linear DNA transformation method using λ Red system (Datsenko and Wanner, 2000) was employed to place the EGFP^mut genes at putAP sites (Elliott, 1992) in the wild type Salmonella chromosome, LT2. Then, each EGFP^mut1 and EGFP^mut3 gene was moved to TA100 and TA98 using generalized transducing phage, P22, resulting in a construction of CH 4001 and 4003.
(§4) We tested mutation frequency of these two strains together with conventional Ames test strains, TA100 and TA98, in the presence of mutagens, ENU and ICR191. ENU is known to induce base-pair substitution while ICR191 frameshift mutation (OECD, 1997). His^+ revertants were selected on minimal plates and EGFP^+ revertants were screened on NA plates which allowed visualization of about 10^6 colonies individually. […], a test strain for frameshift mutation, together with TA98, was incubated with 1 mg/plate ICR191.

S. typhimurium TA98 = experiment: Ames test, His+ reversion, tester strain TA98; details: for Number of revertants, TA98, phenotype His^+: total 10^6 bacteria plated on minimal media plates
Procedure: (§5) S. typhimurium strain of Ames test, TA98 and TA, were purchased and grown following manufacture's instruction (Xenometrix AG, Switzerland). CH4001 and CH4003 strains carrying EGFP^mut DNA on their chromosomes (Table 1) were created as described in Result section.
as §2, §4

[4] = system: CH4001 (TA100 carrying EGFP^mut1 on chromosome); experiment: His+ reversion, strain CH4001
Procedure: as §1
The plate-incorporation assay was carried out as described (OECD, 1997). Briefly, bacterial cells from stock cultures were grown for 12 hr in liquid medium at 37° C. A volume of 0.1 mL bacterial suspension was added to 2 mL of top agar (Difco) medium containing 0.6% agar, 0.6% NaCl and 20.96 μg of l-histidine and d-biotin (Sigma). […] Colonies were counted 48 hr after incubation at 37° C. […]

[5] = system: MutaFish^1 carrying EGFP^mut1; experiment: Genotoxicity test in transgenic zebrafish embryos, MutaFish^1
Text: EGFP^mut plasmid constructed as described above was microinjected into one-cell stage fertilized eggs laid by the AB* zebrafish line (Oregon University, Corvallis, Oreg.) with transposase mRNA. The microinjected eggs were raised to sexual maturity and mated to wild type AB* zebrafish. Subsequently, the resulting embryos were screened for the presence of mCherry fluorescence in the heart. The screened embryos (hereinafter named as F1) were processed for RT-PCR, Western blotting and Southern blotting to verify the genomic integration of mutant EGFP. The F1 embryos were raised again to sexual maturity and mated to each other to generate F2 embryos homozygous for EGFP^mut. F3 embryos, generated by in-cross between F2 zebrafish, were raised again to sexual maturity.
Fertilized eggs were obtained by pair mating transgenic F3 female and nontransgenic male fish. We divided 24 hr embryos, still coated with chorion, into three groups (266 embryos/group) and exposed them for 30 min at 26° C. to 10 ml of 0, 2, or 5 mM ENU in 0.1% Instant Ocean salts (Senja Pharmaceutical, Hyogo, Japan). Mutagenized embryos were then rinsed and kept in a 28.5° C. incubator for three days. […] The pooled surviving larvae were checked for morphological abnormality and EGFP^+ larvae were selected and then scored by FACSAria (BD Biosciences).
We injected Tol2 plasmid encoding EGFP^mut and transposase mRNA into one-cell stage fertilized zebrafish eggs. F1 progeny with germline transmission were selected by PCR and Southern blot analysis as described in the Experimental Protocol.
To evaluate whether these transgenic fishes could detect mutations in vivo, 24 hr embryos obtained by pair mating the transgenic and nontransgenic fish were treated with mutagens for 30 min: MutaFish^1 with ENU (5 mM) and MutaFish^3 with ICR191 (10 mM). Three days after treatment, the number of EGFP^+ larvae was determined (Table 4).

[6] = system: CH4001 (TA100 carrying EGFP^mut1 on chromosome)
Procedure: as §1, §3, §4

S. typhimurium TA100 = experiment: Ames test, His+ reversion, tester strain TA100
Procedure: as §5, §2
We tested mutation frequency of these two strains together with conventional Ames test strains, TA100 and TA98, in the presence of mutagens, ENU and ICR191. […]

[7] = 0.1 mg/plate ENU, total 10^6 bacteria plated on minimal media plates
[8] = EGFP^mut1 MutaFish, 24 hr embryos, 5 mM ENU for 30 min, scored three days after treatment

## COc1ccc2nc3cc(Cl)ccc3c(NCCCNCCCl)c2c1 [ICR191]
[1]; MutaFish^3, ICR191 10 mM for 30 min, three days after treatment
  frequency of EGFP^+ larvae: 2.32×10^−3
[1]; zebrafish, in vivo
  Morphological abnormality (%): 24.2%
  Mutant frequency × 10^−5: 232 × 10^−5
  Survival rate (%): 79.2%
[2]; 1 mg/plate ICR191
  mutation frequency of His^+ revertants in CH4003: 420.8×10^−6
  Number of revertants, EGFP^mut2 TA98, phenotype His^+: 377.6
[3]; 1 mg/plate ICR191
  Number of revertants, EGFP^mut2 TA98, phenotype EGFP^+: 456.3
[3]; in the presence of ICR191 (1 mg/plate), CH4003
  frequency of EGFP^+ revertants: 456.3×10^−6
S. typhimurium TA98; 1 mg/plate ICR191
  frequency of His^+ revertants in TA98: 327.6×10^−6
  Number of revertants, TA98, phenotype His^+: 420.8

## CCN(N=O)C(N)=O [ENU]
[4]; [7]
  Number of revertants, EGFP^mut1 TA100, phenotype His^+: 5.2
[4]; 0.1 mg/plate of ENU
  frequency of His^+ revertants in CH4001: 5.2×10^−6
[5]; [8]
  Morphological abnormality (%): 20.9%
  Survival rate (%): 97.3%
[5]; EGFP^mut1 MutaFish, EGFP^+ larvae, 5 mM ENU for 30 min, three days after treatment
  Mutant frequency × 10^−5: 63 × 10^−5
[5]; MutaFish^1, ENU 5 mM for 30 min, three days after treatment
  frequency of EGFP^+ larvae: 6.3×10^−4
[2]; 0.1 mg/plate ENU
  Number of revertants, EGFP^mut2 TA98, phenotype His^+: 3.5
[3]; 0.1 mg/plate ENU
  Number of revertants, EGFP^mut2 TA98, phenotype EGFP^+: 3.2
[6]; 0.1 mg/plate ENU, total 10^6 bacteria plated on NA plates
  Number of revertants, EGFP^mut1 TA100, phenotype EGFP^+: 7.1
[6]; in the presence of ENU (0.1 mg/plate), CH4001
  frequency of EGFP^+ reversion: 7.1×10^−6
S. typhimurium TA98; 0.1 mg/plate ENU
  Number of revertants, TA98, phenotype His^+: 3.2
S. typhimurium TA100; [7]
  Number of revertants, TA100, phenotype His^+: 5.6
S. typhimurium TA100; 0.1 mg/plate of ENU
  frequency of His^+ revertants in TA100: 5.6×10^−6
